Measured values reported in patent US20240190847A1, “INDOLINE DERIVATIVES AS DDR1 AND DDR2 INHIBITORS” (CHIESI FARMACEUTICI S.P.A., priority 2021, published 2024).

How the values were obtained:
DDR1 receptor = assay: DDR1 cell based assay (PathHunter U2OS DDR1); conditions: U2OS-DDR1 cells, bovine Type II Collagen 20 μg/ml stimulation
Procedure: The inhibition of DDR1 receptor activation by compounds was evaluated by PathHunter® U2OS DDR1 assay (Eurofins DiscoverX), according to the manufacturer's instructions. Briefly, U2O5-DDR1 cells were seeded in white 384-well plates at a density of 5000 cells/well and incubated for 2 hours at 37° C. and 5% CO2. Cells were then treated with compounds at different concentrations and incubated for 30 minutes, before stimulation with bovine Type II Collagen 20 μg/ml and incubation overnight at 37° C. and 5% CO2. PathHunter Detection Reagents were prepared according to the protocol provided by DiscoverX and 20 μl/well of this mix were added to each well. After incubating the plates for 1 hour at room temperature in the dark, luminescence signal was acquired with a plate reader. Raw data were normalized to vehicle control (0% for normalization) and positive control (100% for normalization; cells treated with 20 μg/ml collagen II) and IC50 parameters were calculated in GraphPad Prism 8.0 software, using sigmoidal dose-response curve fitting with variable slope.

DDR2 [1] = assay: DDR2 LanthaScreen Europium Kinase Binding assay; conditions: 5 nM DDR2, 1 hour at room temperature, Ki from IC50 by Cheng-Prusoff, read-out: Ki DDR2
Procedure: (§1) DDR1 and DDR2 binding assays were performed using Life Technologies LanthaScreen™ Europium Kinase Binding assay. The compounds were incubated with 5 nM DDR1 (Carna Biosciences) or 5 nM DDR2 (Life Technologies) for 1 hour at room temperature in white 384-well OptiPlate (PerkinElmer), containing 20 nM or 10 nM Kinase Tracer 178 respectively and 2 nM Europium labelled anti-GST antibody (Life Technologies) in assay buffer (50 mM HEPES pH 7.5, 10 mM MgCl2, 1 mM EGTA and 0.01% BRIJ35). The ratio of fluorescence emission 665 nm/615 nm after excitation at 340 nm was obtained using the Tecan Spark 20M plate reader. IC50 values were determined in GraphPad Prism 8.0 software, using 4 parameter model: log(inhibitor) vs. response. IC50 values were converted in Ki using the Cheng-Prusoff equation (Ki=IC50/(1+[Tracer]/Kd).

DDR1 = DDR1 LanthaScreen Europium Kinase Binding assay; conditions: 5 nM DDR1, 1 hour at room temperature, Ki from IC50 by Cheng-Prusoff, read-out: Ki DDR1
Procedure: as §1

DDR2 [2] = assay: DDR2 cell based assay (phospho-ELISA in HEK293T-DDR2 cells); parameters: species or system human; conditions: DDR2 phosphorylation, bovine Type II Collagen 50 μg/ml, read-out: IC50DDR2
Procedure: The inhibition of DDR2 phosphorylation by compounds was evaluated in HEK293T-DDR2 recombinant cells by phospho-ELISA assay. Briefly, HEK293T-DDR2 cells were seeded in poly-D-lysine-coated 24-well plates at a density of 250.000 cells/well and incubated for 1.5 hours at 37° C. and 5% CO2 in DMEM+10% FBS. After that, the medium was changed to serum-free DMEM and cells were incubated for 3 hours. Then. test compounds were added at different concentrations 30 minutes before stimulation with bovine Type II Collagen at 50 μg/ml for further 3 hours. For DDR2 phospho-ELISA assay (DuoSet IC Human Phospho-DDR2; R&D Systems), protein extracts were obtained by adding 60 μl/well of lysis buffer prepared according to the manufacturer's instructions.
Protein concentration in the samples was determined by BCA assay and the levels of phospho-DDR2 were determined following R&D Systems indications. Raw data were normalized to maximal inhibition control (0% for normalization) and positive control (100% for normalization; cells treated with 20 μg/ml collagen II) and IC50 parameters were calculated in GraphPad Prism 8.0 software, using sigmoidal dose-response curve fitting with variable slope.

CN1CCN(Cc2cc(C(=O)Nc3ccc4c(c3)N(Cc3cnc(Nc5cnn(C)c5)nc3)CC4)cc(C(F)(F)F)c2)CC1 [Example 4, N-(1-((2-((1-methyl-1H-pyrazol-4-yl)amino)pyrimidin-5-yl)methyl)indolin-6-yl)-3-((4-methylpiperazin-1-yl)methyl)-5-(trifluoromethyl)benzamide]
IC50 (DDR1 receptor): < 25 nM | Ki (DDR2 [1]): < 25 nM | Ki (DDR1): < 25 nM | IC50 (DDR2 [2]): < 25 nM

CN1CCN(Cc2cc(C(=O)Nc3ccc4c(c3)N(Cc3nccnc3N)CC4)cc(C(F)(F)F)c2)CC1 [Example 5, N-(1-((3-aminopyrazin-2-yl)methyl)indolin-6-yl)-3-((4-methylpiperazin-1-yl)methyl)-5-(trifluoromethyl)benzamide]
IC50 (DDR1 receptor): < 25 nM | Ki (DDR2 [1]): < 25 nM | Ki (DDR1): < 25 nM | IC50 (DDR2 [2]): 25 to 50 nM

CC(=O)Nc1ccc(CN2CCc3ccc(C(=O)Nc4ccc(CN5CCN(C)CC5)c(C(F)(F)F)c4)cc32)cn1 [Example 13, 1-((6-acetamidopyridin-3-yl)methyl)-N-(4-((4-methylpiperazin-1-yl)methyl)-3-(trifluoromethyl)phenyl)indoline-6-carboxamide]
IC50 (DDR1 receptor): < 25 nM | Ki (DDR2 [1]): 25 to 50 nM | Ki (DDR1): < 25 nM | IC50 (DDR2 [2]): 50 to 80 nM

CNc1ccc(CN2CCc3ccc(C(=O)Nc4ccc(CN5CCN(C)CC5)c(C(F)(F)F)c4)cc32)cn1 [Example 14, 1-((6-(methylamino)pyridin-3-yl)methyl)-N-(4-((4-methylpiperazin-1-yl)methyl)-3-(trifluoromethyl)phenyl)indoline-6-carboxamide]
IC50 (DDR1 receptor): < 25 nM | Ki (DDR2 [1]): 25 to 50 nM | Ki (DDR1): < 25 nM | IC50 (DDR2 [2]): 50 to 80 nM

COCCn1cc(Nc2ncc(CN3CCc4ccc(C(=O)Nc5cccc(C(F)(F)F)c5)cc43)cn2)cn1 [Example 16, 1-((2-((1-(2-methoxyethyl)-1H-pyrazol-4-yl)amino)pyrimidin-5-yl)methyl)-N-(3-(trifluoromethyl)phenyl)indoline-6-carboxamide]
IC50 (DDR1 receptor): < 25 nM | Ki (DDR2 [1]): < 25 nM | Ki (DDR1): < 25 nM | IC50 (DDR2 [2]): < 25 nM

CN1CCN(Cc2cc(NC(=O)c3ccc4c(c3)N(Cc3cnc(Nc5cnn(C)c5)nc3)CC4)cc(C(F)(F)F)c2)CC1 [Example 18, 1-((2-((1-methyl-1H-pyrazol-4-yl)amino)pyrimidin-5-yl)methyl)-N-(3-((4-methylpiperazin-1-yl)methyl)-5-(trifluoromethyl)phenyl)indoline-6-carboxamide]
IC50 (DDR1 receptor): < 25 nM | Ki (DDR2 [1]): < 25 nM | Ki (DDR1): < 25 nM | IC50 (DDR2 [2]): < 25 nM
